Experimental data: patent US20220257621A1, “CANCER CELL PROLIFERATION SUPPRESSION AGENT AND COMPOSITION FOR SUPPRESSING PROLIFERATION OF CANCER CELLS” (SHOWA DENKO K.K., priority 2019, published 2022)

Assays:
[1] = test system: cell line derived from Lewis lung carcinoma (LLC); assay: Effect (2) of suppressing proliferation of cancer cells, inositol derivative and Na tocopherol phosphate (WST-8); assay type: cell-based; settings: Na tocopherol phosphate 10 μM and/or inositol derivative 0.001% by mass 24 h, then atmospheric dust 500 μg/mL 48 h, control without dust = 1, dust + 0.05% ethanol = 1.69
Method: The effect of the inositol derivative and Na tocopherol phosphate on suppressing the proliferation of cancer cells in a cell line derived from Lewis lung carcinoma (LLC, JCRB Cell Bank) was measured under the following conditions. As the following Na tocopherol phosphate, TPNa (registered trademark) (manufactured by Showa Denko K. K.), which is sodium d1-α-tocopheryl phosphate, was used.
The LLC cells were seeded at the seeding density of 50000 cells/cm^2 in a culture medium in which a Ham F10 medium and an L15 medium (both manufactured by Sigma-Aldrich) were mixed at the ratio of 3:7 (volume ratio), and cultured for 24 hours under the conditions of 37° C. and 5% CO2. Next, Na tocopherol phosphate alone (final concentration of 10 μM in the culture medium), the inositol derivative alone (final concentration of 0.001% by mass in the culture medium), or a combination of Na tocopherol phosphate (final concentration of 10 μM in the culture medium) and the inositol derivative (final concentration of 0.001% by mass in the culture medium) was added to the culture medium. […] Thereafter, the culture medium was replaced with a medium containing 10% (V/V) of WST-8 of Nacalai Tesque Inc., and after further culturing for 3 hours, the absorbance at the wavelength of 450 nm was measured with a microplate reader i-Control (manufactured by Tecan Group Ltd.). […]

[2] = test system: normal human epidermal keratinocytes (NHEK); assay: Effect (2) of suppressing ROS production, inositol derivative and Na tocopherol phosphate; assay type: cell-based; settings: Na tocopherol phosphate 10 μM and/or inositol derivative 0.001% by mass 24 h, then atmospheric dust 500 μg/mL 48 h, control without dust = 1, dust + 0.05% ethanol = 2.41
Method: The effect of the inositol derivative and Na tocopherol phosphate on suppressing ROS production in normal human epidermal keratinocytes (NHEK, manufactured by KURABO INDUSTRIES LTD.) was measured under the following conditions. As the following Na tocopherol phosphate, TPNa (registered trademark) (manufactured by Showa Denko K. K.), which is sodium d1-α-tocopheryl phosphate, was used.
The NHEK cells were seeded in a HuMedia KG2 medium manufactured by KURABO INDUSTRIES LTD. at the seeding density of 10000 cells/cm^2, and cultured for 24 hours under the conditions of 37° C. and 5% CO2. Next, Na tocopherol phosphate alone (final concentration of 10 μM in the culture medium), the inositol derivative alone (final concentration of 0.001% by mass in the culture medium), or a combination of Na tocopherol phosphate (final concentration of 10 μM in the culture medium) and the inositol derivative (final concentration of 0.001% by mass in the culture medium) was added to the culture medium. […] Thereafter, the ROS production amount was measured using a ROS assay kit (manufactured by OZ BIOSCIENCES). […] After washing the cells with PBS again, 100 μL of PBS was added, and the fluorescence intensity at an excitation wavelength of 485 nm/an absorption wavelength of 535 nm was measured with a microplate reader i-Control (manufactured by Tecan Group Ltd.). […]

Cc1c(C)c2c(c(C)c1OP(=O)([O-])[O-])CCC(C)(CCCC(C)CCCC(C)CCCC(C)C)O2.[Na+].[Na+] (stereo not drawn) [Na tocopherol phosphate, sodium d1-α-tocopheryl phosphate]
Relative cell proliferation amount [1]: 1.33 | Relative ROS production amount [2]: 1.53
